Data published in US6913892B1, “Method of obtaining compositions comprising Y4 specific compounds” (H. Lundbeck A/S, priority 1993, dated 2005).
Each block holds one substance with its values, some of them ahead of it.

Key:
Y1 receptor [1] = target: T1, Y1 receptor (Homo sapiens, UniProt P25929); conditions: Table 1, rank orders from published reports; cited from earlier work
T1 sequence (P25929 1-384): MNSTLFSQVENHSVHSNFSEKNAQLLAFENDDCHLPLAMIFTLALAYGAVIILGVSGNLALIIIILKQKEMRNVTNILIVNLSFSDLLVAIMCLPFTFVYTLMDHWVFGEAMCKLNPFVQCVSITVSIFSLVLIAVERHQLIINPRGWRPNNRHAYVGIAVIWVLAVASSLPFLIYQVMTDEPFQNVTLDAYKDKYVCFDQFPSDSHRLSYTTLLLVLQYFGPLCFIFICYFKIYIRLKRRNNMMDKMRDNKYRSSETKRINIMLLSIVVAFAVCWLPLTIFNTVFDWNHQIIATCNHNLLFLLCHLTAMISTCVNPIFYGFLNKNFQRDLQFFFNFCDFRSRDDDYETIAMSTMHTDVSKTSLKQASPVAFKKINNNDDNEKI

[2] = target: T2, human hp25a (Y4) receptor (Homo sapiens, UniProt P50391); assay: Competitive displacement / binding of 125I-PYY, membranes of COS-7 cells transiently expressing hp25a (human Y4) receptors
T2 construct: The entire coding region of hp25a (1127 bp); expressed in transfected cells; host or cells: COS-7

Y1 receptor [3] = target: T1, Y1 receptor; assay: Competitive displacement / binding of 125I-PYY, membranes of COS-7 cells transiently expressing human Y1 receptors; parameters: expressed in transfected cells; host or cells: COS-7
Y3 receptor = conditions: Table 1, rank orders from published reports; cited from earlier work
PP receptor = conditions: Table 1, rank orders from published reports; cited from earlier work
PYY-preferring receptor = conditions: Laburthe et al., 1986, 1990; cited from earlier work
[4] = N-terminal deletion of porcine NPY

T2 sequence (P50391 whole entry): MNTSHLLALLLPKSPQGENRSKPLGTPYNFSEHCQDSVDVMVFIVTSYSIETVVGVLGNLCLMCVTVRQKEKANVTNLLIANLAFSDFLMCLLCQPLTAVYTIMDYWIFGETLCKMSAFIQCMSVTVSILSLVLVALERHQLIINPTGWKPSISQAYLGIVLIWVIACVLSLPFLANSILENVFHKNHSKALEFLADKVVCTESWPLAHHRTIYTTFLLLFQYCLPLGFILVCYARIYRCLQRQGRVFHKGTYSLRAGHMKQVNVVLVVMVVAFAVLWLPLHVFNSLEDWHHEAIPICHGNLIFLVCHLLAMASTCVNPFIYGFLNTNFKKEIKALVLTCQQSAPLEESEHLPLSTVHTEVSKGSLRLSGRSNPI

Substance: NPY2-36: NPY fragment 2-36, species not stated (Table 1)
- Affinity (−pKi or −pEC50), Y1 (Y1 receptor [1]): 9 to 8

- decrease in affinity compared with full length parent peptide, hp25a [2, 4]: 33 fold
- decrease in affinity compared with full length parent peptide, human Y1 receptors (Y1 receptor [3]; [4]): 1000 fold
Substance: NPY13-36: NPY carboxyl-terminal fragment 13-36, species not stated; b153 folds follow porcine data

Substance: Neuropeptide Y [NPY]
- Affinity (−pKi or −pEC50), Y3 (Y3 receptor): 10 to 9
- Affinity (−pKi or −pEC50), PP (PP receptor): <6

Substance: PYY: peptide YY, species not stated at the place
- Affinity (−pKi or −pEC50), Y3 (Y3 receptor): <6
- higher affinity for PYY than for NPY (PYY-preferring receptor): 5-10 fold

Substance: [LEU^31, Pro^34]NPY: analog of NPY modified at residues 31 and 34, species not stated (Table 1)
- Affinity (−pKi or −pEC50), PP (PP receptor): 9 to 8

Substance: [Pro^34]NPY: NPY analog with Pro34 (Table 1)
- Affinity (−pKi or −pEC50), Y3 (Y3 receptor): 9 to 8

Substance: ^125I-PYY
- observed association rate (Kobs) ([2]; hp25a, 0.06 nM 125I-PYY): 0.12 ± 0.02 min⁻¹
- observed association rate (Kobs) (Y1 receptor [3]; human Y1 in COS-7): 0.06 ± 0.02 min⁻¹
